In patent US6417383B1, “Thermosensitive cyclotriphosphazene derivatives and a preparation method thereof” (Korea Institute of Science and Technology, priority 1999, dated 2002):

Assay: LCST (lower critical solution temperature) measured by UV/VIS spectrophotometer
Assay type: physicochemical
Conditions: lower critical solution temperature in water; Perkin-Elmer Lamda18 UV/VIS spectrophotometer
Protocol: Thermosensitivity in the present invention refers to the reversible phenomenon wherein a material is dissolved in water at a low temperature but precipitated as a result of the lowered solubility above at a critical temperature, and re-dissolved in water by lowering the temperature. This phenomenon is contradictory to the general phenomenon that solubility increases at higher temperatures. Thermosensitivity is often observed for water-soluble polymers that are dissolved below and precipitated above the so-called lower critical solution temperatures (LCST). Below the LCST, interaction between polymer and water molecules by hydrogen bonding is greater than the intermolecular hydrophobic interaction between polymer molecules, which results in dissolution of the polymer in water. As the temperature of the aqueous solution increases, however, the hydrogen bonding of the polymer-water molecules weakens whereas the hydrophobic interaction between the polymer molecules increases. As, the temperature of the aqueous solution reaches the LCST, the hydrophobic interaction becomes greater than the hydrogen bonding interaction between the polymer and water molecules resulting in the precipitation of the polymer in aqueous solution.
Elemental analysis of carbon, hydrogen, nitrogen in the compounds of the present invention was performed in the Special Analysis Center in our Institute by using a carbon, hydrogen and nitrogen analyzer (Perkin Eimer), and phosphorous analysis was performed using a Polyscan 61E ICP. Also, hydrogen and phosphorous nuclear magnetic resonance spectra were obtained using a Varian Gemini-300, and the LCST was measured by using a Perkin-Elmer Lamda18 UV/VIS spectrophotometer.

Row | Substance | LCST
1 | (Poly(methoxyethyleneglycol350))(glycinebenzylester) cyclotriphosphazene [Example 8] | 65.5 °C
2 | (Poly(methoxyethyleneglycol750))(L-aspartoyldibenzylester) cyclotriphosphazene [Example 14] | 78.5 °C
3 | (2-(2′-Ethoxyethoxy)ethoxy)(L-aspartoyldiethylester) cyclotriphosphazene [Example 6] | 16.5 °C
4 | (2-(2′-Methoxyethoxy)ethoxy)(L-aspartoyldiethylester) cyclotriphosphazene [Example 4] | 47.5 °C
5 | (2-(2′-Butoxyethoxy)ethoxy)(L-aspartoyldiethylester) cyclotriphosphazene [Example 7] | below 0 °C
6 | (Poly(methoxyethyleneglycol350))(aminomalonatoyl diethylester)cyclotriphosphazene [Example 9] | 95.0 °C
7 | (Poly(methoxyethyleneglycol350))(L-aspartoyldiethylester) cyclotriphosphazene [Example 10] | 83.0 °C
8 | (Poly(methoxyethyleneglycol350))(L-glutamoyldiethylester) cyclotriphosphazene [Example 12] | 73.0 °C
9 | (2-(2′-Methoxyethoxy)ethoxy)-(aminomalonatodiethylester) cyclotriphosphazene [Example 3] | 39.0 °C
10 | (Poly(methoxyethyleneglycol350))(L-aspartoyldibenzylester)cyclotriphosphazene [Example 11] | 42.5 °C
11 | (2-(2′-Methoxyethoxy)ethoxy)(glycineethylester)cyclotriphosphazene [Example 1] | above 100 °C
12 | (Poly(methoxyethyleneglycols550))L-aspartoyldibenzylester) cyclotriphosphazene [Example 13] | 69.0 °C
13 | (2-(2′-Methoxyethoxy)ethoxy)(glycinebenzylester) cyclotriphosphazene [Example 2] | 10.5 °C
14 | (2-(2′-Methoxyethoxy)ethoxy)(L-glutamoyldiethylester) cyclotriphosphazene [Example 5] | 30.0 °C
